Experimental data from US7947729B2, “Adduct of fluorescent dye and tumor avid tetrapyrrole” (Health Research, Inc., priority 2004, dated 2011).

Legend:
RIF tumors [1] = assay: Tumor uptake by in vivo reflectance spectroscopy; parameters: species or system C3H mice
Protocol: The tumor uptake of conjugate 5 was determined by in vivo reflectance spectroscopy. For these experiments, C3H mice bearing RIF tumors were injected with 5.0 μmole/kg of conjugate 5 and the in vivo absorption spectra were taken at various time intervals.

RIF tumors [2] = assay: Photosensitizing efficiency (photodynamic therapy of implanted tumors); assay type: in vivo, C3H mice; settings: light 135 J/cm^2 at 665 nm, 24 hours post injection, FIG. 7
Protocol: To measure photosensitizing efficiency, RIF tumors were implanted subcutaneously into axilla of 5-7 week old female C3H mice. When tumors grew to about […] in size, conjugate 5 was injected at variable doses (0.5, 1.0, 1.5, and 2.5 μmole/kg) The tumors were treated with light at an energy of 135 J/cm^2 at a wavelength of 665 nm (in vivo absorption band for HPPH) at 24 hours post injection and the mice were observed daily. From the results summarized in FIG. 7, it can be seen that conjugate 5 produced 100% tumor cure at a dose of 2.5 μmole/kg (the tumor imaging dose).

RIF tumor cells = assay: Site of intracellular localization compared with a mitochondrial probe; assay type: cell-based; settings: 24 hours incubation; compared with MITO-TRACKER green (400 nM); FIG. 8
Source text: In general, porphyrin based compounds have shown diverse patterns of localization at least somewhat dependent upon structure, lipophilicity and charge.

Row | SMILES | uptake in tumor relative to skin (RIF tumors [1]; 5.0 μmole/kg injected, 24 hours post injection, FIG. 3) | tumor cure (RIF tumors [2]; 2.5 μmole/kg) [%] | photosensitizing efficacy at lower doses (RIF tumors [2]; doses below 2.5 μmole/kg (0.5, 1.0, 1.5)) | site of localization in cells (RIF tumor cells) | uptake in skin relative to tumor, dye alone (RIF tumors [1]; 5.0 μmole/kg, dye alone, C3H mouse bearing tumor) | tumor uptake compared with HPPH-ICG conjugate 5 (RIF tumors [1]; 5.0 μmole/kg, dye alone, FIG. 5) | time post injection at which cleared from both tumor and skin (RIF tumors [1]; 5.0 μmole/kg, dye alone, found to clear rapidly) [h]
1 | CCCCCCOC(C)c1c(C)c2cc3nc(c4c5[nH]c(cc6nc(cc1[nH]2)C(C)=C6CC)c(C)c5C(=O)C4)C(CCC(=O)Nc1ccc(SC2=C(C=CC4=[N+](CCCCS(=O)(=O)[O-])c5ccc6ccccc6c5C4(C)C)CCCC2=CC=C2N(CCCCS(=O)(=O)[O-])c4ccc5ccccc5c4C2(C)C)cc1)C3C.[Na+] (stereo not shown) [conjugate 5] | more significant uptake in tumor than skin | 100 | limited photosensitizing efficacy | localizes in mitochondria | – | – | –
2 | CC1(C)C(=CC=C2CCCC(C=CC3=[N+](CCCCS(=O)(=O)[O-])c4ccc5ccccc5c4C3(C)C)=C2Cl)N(CCCCS(=O)(=O)[O-])c2ccc3ccccc3c21.[Na+] [indocyanine green analog (1), indocyanine green 820 nm analog CAS172616-80-7] | – | – | – | – | higher uptake in skin than in tumor | significantly lower tumor uptake | 4 to 5
